One block for each molecule: values may come before it.
What was measured:
[1] = Comparison with prior art formulations: dissolved kinetin or zeatin in GDM-12, Transcutol, isostearic acid and mixtures by HPLC; conditions: for Synergistic Increase in Solubility %: zeatin
Description: (§1) Kinetin was combined and mixed in separate beakers containing GDM-12, Transcutol, and Isostearic Acid, and the concentration of dissolved kinetin in each beaker was determined by HPLC. Kinetin was then combined and mixed in separate beakers containing GDM-12 and Transcutol (1:1) and containing GDM-12 and Isostearic acid.
as §1, with “Zeatin” for “Kinetin”, “zeatin” for “kinetin”

[2] = distilled water / water; cited from earlier work
[3] = Solubility of kinetin or zeatin when both kinetin and zeatin are dissolved, determined by HPLC
Description: (§2) Solubilization of kinetin and zeatin was determined by HPLC.

[4] = Solubility of kinetin or zeatin alone in GDM-12, GDO-12, isostearic acid and 50:50 mixtures, determined by HPLC; conditions: for calculated solubility: based on independent solubility in each solvent
Description: as §2

[5] = solvent GDM-12 + Isostearic Acid
[6] = solvent GDM-12 + Transcutol (1:1)
[7] = 50% GDM-12 and 50% isostearic acid
[8] = 50% GDO-12 and 50% isostearic acid

Kinetin % w/w Experimental ([1]; solvent GDM-12): .164 % w/w | Kinetin % w/w Calculated [1, 5]: .229 % w/w | Kinetin % w/w Experimental [1, 5]: .422 % w/w | Kinetin % w/w Calculated [1, 6]: .281 % w/w | Kinetin % w/w Experimental [1, 6]: .287 % w/w | Kinetin % w/w Experimental ([1]; solvent Isostearic Acid): .299 % w/w | Kinetin % w/w Experimental ([1]; solvent Transcutol): .397 % w/w
Compound: c1coc(CNc2ncnc3nc[nH]c23)c1 [Kinetin, N^6-furfuryladenine]

calculated solubility ([3]; both kinetin and zeatin combined, 50% GDM-12 and 50% isostearic acid): 0.19 wt % | increase over the calculated solubility ([3]; both kinetin and zeatin dissolved, 50% GDM-12 and 50% isostearic acid): 121% | solubility ([3]; both kinetin and zeatin dissolved, in 50% GDM-12 and 50% isostearic acid): 0.42 % w/w | solubility ([3]; both kinetin and zeatin dissolved, in 100% GDM-12): 0.10 % w/w | solubility ([3]; both kinetin and zeatin dissolved, in 100% isostearic acid): 0.28 % w/w | Zeatin % w/w Experimental ([1]; solvent GDM-12): .119 % w/w | Zeatin % w/w Calculated [1, 5]: .229 % w/w | Zeatin % w/w Experimental [1, 5]: .440 % w/w | Zeatin % w/w Calculated [1, 6]: .345 % w/w | Zeatin % w/w Experimental [1, 6]: .365 % w/w | Zeatin % w/w Experimental ([1]; solvent Isostearic Acid): .299 % w/w | Zeatin % w/w Experimental ([1]; solvent Transcutol): .570 % w/w | Synergistic Increase in Solubility % [1, 5]: 92% | Synergistic Increase in Solubility % ([1]; solvent GDM-12 + Isostearic Acid, listed as zeatin): 92% | Synergistic Increase in Solubility % [1, 6]: 0% | Synergistic Increase in Solubility % ([1]; solvent GDM-12 + Transcutol (1:1), listed as zeatin): does not provide a synergistic increase | increase over the calculated solubility [4, 7]: 109% | calculated solubility [4, 7]: 0.21 wt % | increase over the calculated solubility [4, 8]: 100% | calculated solubility [4, 8]: 0.20 wt % | solubility ([4]; in 50% GDM-12 and 50% isostearic acid): 0.44 % w/w | solubility ([4]; in 50% GDO-12 and 50% isostearic acid): 0.40 % w/w | solubility ([4]; in 100% GDM-12 (PEG-12 Glycerol dimyristate)): 0.12 % w/w | solubility ([4]; in 100% GDO-12 (PEG-12 Glycerol dioleate)): 0.10 % w/w | solubility ([4]; in 100% isostearic acid): 0.30 % w/w
Compound: C/C(=C\CNc1ncnc2nc[nH]c12)CO [Zeatin, (E)-2-methyl-4-(7H-purin-6-ylamino)but-2-en-1-ol]
solubility in water [2]: practically insoluble

— patent publication US10166235B2, “Kinetin/zeatin topical formulation” (Dow Pharmaceutical Sciences, Inc., priority 2013, dated 2019)
